Data on 1 compound can be found in patent US5132401A (George Washington University, Office of Sponsored Research, priority 1989, dated 1992).

The test deals with anterior pituitary cells. As to the kind of experiment: PRL assay: in vitro prolactin release from normal anterior pituitary cells, RIA. It is filed as cell-based, Sprague-Dawley rats. As to conditions: maximum stimulatory concentration of TRH (100 nM); FIG. 12. On the procedure: Inhibitory neurohormones and drugs were added during the final 20 minutes of the second rinse. […] After incubations, the medium is quickly removed and saved for radioimmunoassay (RIA).
PRL and GH were determined by standard RIA techniques (media diluted 1:30, 25-70 μl samples) using materials and protocols supplied by the NIDDK Rat Pituitary Hormone Distribution Program. Inter- and intra-assay variations for PRL and GH were less than 8% to 10%, respectively. All samples were assayed in duplicate, with results expressed in terms of NIDDK standards (rat PRL RP-2 and rat GH RP-1).

Regarding `NC(=O)[C@@H]1CCCN1C(=O)[C@H](Cc1cnc[nH]1)NC(=O)[C@@H]1CCC(=O)N1` [TRH, thyrotropin releasing hormone], the “increase in PRL release compared to the control value” was determined as 480%.
